Results as given in US9156845B2, “4-(substituted amino)-7H-pyrrolo[2,3-d] pyrimidines as LRRK2 inhibitors” (Pfizer Inc., priority 2012, dated 2015).

How the values were obtained:
mutant G2019S LRRK2 = mutant G2019S LRRK2 (Homo sapiens (Human), UniProt Q5S007, G2019S); assay: LRRK2 Lantha Screen kinase assay, mutant enzyme; format: biochemical; details: geometric mean of 2-5 determinations unless otherwise indicated (a: >=6 determinations; b: single determination)
Procedure: LRRK2 kinase activity was measured using Lantha Screen technology from Invitrogen. GST-tagged truncated LRRK2 from Invitrogen (Cat # PV4874) was incubated with a fluorescein-labeled peptide substrate based upon ezrin/radixin/moesin (ERM), also known as LRRKtide (Invitrogen cat #PR8976A), in the presence of a dose response of compound. Upon completion, the assay was stopped and detected with a terbium labeled anti-phospho-ERM antibody (Invitrogen, cat #PR8975A). […] Aliquots (3.5 μL) of the 100% DMSO dose response were mixed with 46.5 μL water then 1 μL of this mixture was added to the 3 μL substrate mix in the 384-well plate. The kinase reaction was started with 3 μL of a working solution of LRRK2 enzyme at a concentration of 4 μg/mL. […] The reaction was allowed to progress at room temperature for two hours and then stopped with the addition of 7 μL of detection buffer (20 mM Tris pH 7.6, 0.01% NP-40, 0.02% NaN3, 6 mM EDTA with 2 nM terbium labeled anti-phospho-ERM).
All final concentrations of substrate ATP and enzyme were the same.

[1] = biological target: GST-tagged truncated LRRK2 (Homo sapiens (Human), UniProt Q5S007); assay: LRRK2 Lantha Screen kinase assay; format: biochemical; details: geometric mean of 2-5 determinations unless otherwise indicated (a: >=6 determinations; b: single determination); read-out: LRRK2 WT IC50
Sequence of GST-tagged truncated LRRK2 (Q5S007 970-2527): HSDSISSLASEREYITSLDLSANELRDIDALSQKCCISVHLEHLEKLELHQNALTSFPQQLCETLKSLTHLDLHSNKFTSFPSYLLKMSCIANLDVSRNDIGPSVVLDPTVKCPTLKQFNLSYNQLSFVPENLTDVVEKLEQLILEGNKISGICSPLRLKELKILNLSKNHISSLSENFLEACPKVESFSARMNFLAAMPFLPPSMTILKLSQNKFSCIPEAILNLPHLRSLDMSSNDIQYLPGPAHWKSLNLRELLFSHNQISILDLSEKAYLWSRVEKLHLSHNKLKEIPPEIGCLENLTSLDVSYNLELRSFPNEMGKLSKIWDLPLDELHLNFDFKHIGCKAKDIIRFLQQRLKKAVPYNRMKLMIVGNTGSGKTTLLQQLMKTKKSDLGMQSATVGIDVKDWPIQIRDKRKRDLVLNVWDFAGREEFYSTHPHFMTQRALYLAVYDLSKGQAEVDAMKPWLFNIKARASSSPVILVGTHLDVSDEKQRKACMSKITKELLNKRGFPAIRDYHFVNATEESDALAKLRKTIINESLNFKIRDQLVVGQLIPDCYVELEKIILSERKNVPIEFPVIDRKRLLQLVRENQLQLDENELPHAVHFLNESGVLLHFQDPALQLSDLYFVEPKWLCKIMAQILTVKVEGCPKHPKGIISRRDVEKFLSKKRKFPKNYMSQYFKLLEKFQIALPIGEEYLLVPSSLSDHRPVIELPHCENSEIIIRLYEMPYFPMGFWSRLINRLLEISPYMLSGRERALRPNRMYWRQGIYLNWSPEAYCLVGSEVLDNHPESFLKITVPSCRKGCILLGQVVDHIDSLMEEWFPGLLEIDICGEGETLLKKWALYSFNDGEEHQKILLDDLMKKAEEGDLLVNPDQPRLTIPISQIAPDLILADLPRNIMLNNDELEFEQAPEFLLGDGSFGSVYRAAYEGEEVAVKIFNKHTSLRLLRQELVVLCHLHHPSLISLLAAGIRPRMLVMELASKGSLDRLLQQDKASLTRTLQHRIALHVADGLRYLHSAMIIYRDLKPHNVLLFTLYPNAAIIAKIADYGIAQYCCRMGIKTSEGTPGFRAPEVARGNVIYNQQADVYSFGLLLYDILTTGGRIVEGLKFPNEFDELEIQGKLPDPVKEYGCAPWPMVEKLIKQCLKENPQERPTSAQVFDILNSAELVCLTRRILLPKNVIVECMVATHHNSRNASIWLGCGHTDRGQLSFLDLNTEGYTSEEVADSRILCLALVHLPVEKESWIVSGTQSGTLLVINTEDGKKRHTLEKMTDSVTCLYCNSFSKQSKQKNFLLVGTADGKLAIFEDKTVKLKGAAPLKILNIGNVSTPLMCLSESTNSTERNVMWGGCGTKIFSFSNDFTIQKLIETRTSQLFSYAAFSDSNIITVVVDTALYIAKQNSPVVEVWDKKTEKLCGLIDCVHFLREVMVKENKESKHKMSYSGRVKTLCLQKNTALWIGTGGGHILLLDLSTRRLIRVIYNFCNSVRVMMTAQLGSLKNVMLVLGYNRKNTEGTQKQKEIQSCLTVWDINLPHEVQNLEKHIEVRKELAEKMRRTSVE

Sequence of mutant G2019S LRRK2 (Q5S007 970-2527 G2019S): as the sequence (Q5S007 970-2527) above, with G1050S counted along it

`Cc1ccc(OCC2CN(c3ncnc4[nH]cc(-c5cnn(C)c5)c34)CCO2)cn1` (stereo not drawn) [Example 125, 5-(1-methyl-1H-pyrazol-4-yl)-4-(2-{[(6-methylpyridin-3-yl)oxy]methyl}morpholin-4-yl)-7H-pyrrolo[2,3-d]pyrimidine] gave an IC50 (mutant G2019S LRRK2) of 87 nM and an IC50 [1] of 54 nM.

In the case of `COc1cc(F)cc(-c2c[nH]c3ncnc(N4CCOCC4)c23)c1` [Example 85, 5-(3-fluoro-5-methoxyphenyl)-4-(morpholin-4-yl)-7H-pyrrolo[2,3-d]pyrimidine], the IC50 (mutant G2019S LRRK2) is reported as 20 nM and the IC50 [1] is reported as 9 nM.

With `N#Cc1cccc(-c2c[nH]c3ncnc(N4CCOC(c5noc(C6CC6)n5)C4)c23)c1` (stereo not drawn) [Example 135, 3-{4-[2-(5-cyclopropyl-1,2,4-oxadiazol-3-yl)morpholin-4-yl]-7H-pyrrolo[2,3-d]pyrimidin-5-yl}benzonitrile] the IC50 (mutant G2019S LRRK2) was 47 nM and the IC50 [1] was 19 nM.

With `COc1ccccc1-c1c[nH]c2ncnc(N(C)C)c12` [Example 173, 5-(2-methoxyphenyl)-N,N-dimethyl-7H-pyrrolo[2,3-d]pyrimidin-4-amine] the IC50 (mutant G2019S LRRK2) was 29 nM and the IC50 [1] was 43 nM.

`C[C@H]1CCCN(c2ncnc3[nH]cc(-c4ccc(C(N)=O)cc4)c23)C1` [Example 57, 4-{4-[(3S)-3-methylpiperidin-1-yl]-7H-pyrrolo[2,3-d]pyrimidin-5-yl}benzamide] was tested, and the IC50 (mutant G2019S LRRK2) was 9 nM and the IC50 [1] was 13 nM.

With `Clc1ccccc1-c1c[nH]c2ncnc(N3CCOCC3)c12` [Example 95, 5-(2-chlorophenyl)-4-(morpholin-4-yl)-7H-pyrrolo[2,3-d]pyrimidine] the IC50 (mutant G2019S LRRK2) was 33 nM and the IC50 [1] was 21 nM.

Compound `CN(C)CC1CN(c2ncnc3[nH]cc(-c4cccc(C#N)c4)c23)CCO1` (stereo not drawn) [Example 143, 3-(4-{2-[(dimethylamino)methyl]morpholin-4-yl}-7H-pyrrolo[2,3-d]pyrimidin-5-yl)benzonitrile] has an IC50 (mutant G2019S LRRK2) of 110 nM and an IC50 [1] of 45 nM.

`Cc1nn(C)cc1-c1c[nH]c2ncnc(N3CCOCC3)c12` [Example 152, 5-(1,3-dimethyl-1H-pyrazol-4-yl)-4-(morpholin-4-yl)-7H-pyrrolo[2,3-d]pyrimidine] showed an IC50 (mutant G2019S LRRK2) of 91 nM and an IC50 [1] of 60 nM.

With `Cc1nc(C2CN(c3ncnc4[nH]cc(-c5cccc(C#N)c5F)c34)CCO2)no1` (stereo not drawn) [Example 186, 2-fluoro-3-{4-[2-(5-methyl-1,2,4-oxadiazol-3-yl)morpholin-4-yl]-7H-pyrrolo[2,3-d]pyrimidin-5-yl}benzonitrile] the IC50 (mutant G2019S LRRK2) was 90 nM and the IC50 [1] was 17 nM.

`Cc1noc(C2CN(c3ncnc4[nH]cc(-c5cccc(C#N)c5F)c34)CCO2)n1` (single isomer, unassigned) [Example 213] gave an IC50 (mutant G2019S LRRK2) of 95.7 nM and an IC50 [1] of 7.71 nM.

Work on `COc1ccc(F)cc1-c1c[nH]c2ncnc(N3CCOCC3)c12` [Example 94, 5-(5-fluoro-2-methoxyphenyl)-4-(morpholin-4-yl)-7H-pyrrolo[2,3-d]pyrimidine] yielded an IC50 (mutant G2019S LRRK2) of 10 nM and an IC50 [1] of 7 nM.

With `Cc1cc(-c2c[nH]c3ncnc(N4CCOCC4)c23)sn1` [Example 192, 5-(3-methyl-1,2-thiazol-5-yl)-4-(morpholin-4-yl)-7H-pyrrolo[2,3-d]pyrimidine] the IC50 (mutant G2019S LRRK2) was 73 nM and the IC50 [1] was 23 nM.

For `COCC1CN(c2ncnc3[nH]cc(-c4cccc(C#N)c4)c23)CCO1` (single isomer, unassigned) [Example 74], the IC50 (mutant G2019S LRRK2) was 100 nM and the IC50 [1] was 12 nM.

Work on `Fc1ccc(-c2c[nH]c3ncnc(N4CCOCC4)c23)c(F)c1` [Example 90, 5-(2,4-difluorophenyl)-4-(morpholin-4-yl)-7H-pyrrolo[2,3-d]pyrimidine] yielded an IC50 (mutant G2019S LRRK2) of 62 nM and an IC50 [1] of 41 nM.

In the case of `N#Cc1cccc(-c2c[nH]c3ncnc(N4CCOCC4)c23)c1F` [Example 78, 2-fluoro-3-[4-(morpholin-4-yl)-7H-pyrrolo[2,3-d]pyrimidin-5-yl]benzonitrile], the IC50 (mutant G2019S LRRK2) is reported as 7 nM and the IC50 [1] is reported as 2 nM.

`N#Cc1cccc(-c2c[nH]c3ncnc(N4CC5CC(C4)O5)c23)c1` [Example 113, 3-[4-(6-oxa-3-azabicyclo[3.1.1]hept-3-yl)-7H-pyrrolo[2,3-d]pyrimidin-5-yl]benzonitrile] was tested, and the IC50 (mutant G2019S LRRK2) was 523 nM and the IC50 [1] was 58 nM.

Compound `Cc1cncc(-c2c[nH]c3ncnc(N4CCCC(O)C4)c23)c1` (stereo not drawn) [Example 162, 1-[5-(5-methylpyridin-3-yl)-7H-pyrrolo[2,3-d]pyrimidin-4-yl]piperidin-3-ol] has an IC50 (mutant G2019S LRRK2) of 67 nM and an IC50 [1] of 36 nM.

With `CN(C)c1ncnc2[nH]cc(-c3cc(C#N)ccc3F)c12` [Example 72, 3-[4-(dimethylamino)-7H-pyrrolo[2,3-d]pyrimidin-5-yl]-4-fluorobenzonitrile] the IC50 (mutant G2019S LRRK2) was 190 nM and the IC50 [1] was 37 nM.

For `Cc1ccc(Cl)c(-c2c[nH]c3ncnc(N4CCOCC4)c23)c1` [Example 106, 5-(2-chloro-5-methylphenyl)-4-(morpholin-4-yl)-7H-pyrrolo[2,3-d]pyrimidine], the IC50 (mutant G2019S LRRK2) was 44 nM and the IC50 [1] was 22 nM.

With `N#Cc1cccc(-c2c[nH]c3ncnc(N4CCC(F)(CO)CC4)c23)c1` [Example 133, 3-{4-[4-fluoro-4-(hydroxymethyl)piperidin-1-yl]-7H-pyrrolo[2,3-d]pyrimidin-5-yl}benzonitrile] the IC50 (mutant G2019S LRRK2) was 106 nM and the IC50 [1] was 42 nM.

Work on `COc1ccccc1-c1c[nH]c2ncnc(N3CCCC(O)C3)c12` (stereo not drawn) [Example 165, 1-[5-(2-methoxyphenyl)-7H-pyrrolo[2,3-d]pyrimidin-4-yl]piperidin-3-ol] yielded an IC50 (mutant G2019S LRRK2) of 62 nM and an IC50 [1] of 58 nM.

For `C[C@@H]1CN(c2ncnc3[nH]cc(-c4cnn(C)c4)c23)CCO1` [Example 122, 4-[(2R)-2-methylmorpholin-4-yl]-5-(1-methyl-1H-pyrazol-4-yl)-7H-pyrrolo[2,3-d]pyrimidine], the IC50 (mutant G2019S LRRK2) was 31 nM and the IC50 [1] was 67 nM.

`COCC1CN(c2ncnc3[nH]cc(-c4cccc(C#N)c4F)c23)CCO1` (stereo not drawn) [Example 167, 2-fluoro-3-{4-[2-(methoxymethyl)morpholin-4-yl]-7H-pyrrolo[2,3-d]pyrimidin-5-yl}benzonitrile] gave an IC50 (mutant G2019S LRRK2) of 372 nM and an IC50 [1] of 61 nM.

Compound `C1=C(c2c[nH]c3ncnc(N4CCOCC4)c23)CCCO1` [Example 200, 5-(3,4-Dihydro-2H-pyran-5-yl)-4-(morpholin-4-yl)-7H-pyrrolo[2,3-d]pyrimidine] has an IC50 (mutant G2019S LRRK2) of 167 nM and an IC50 [1] of 76.7 nM.

For `Fc1cccc(-c2c[nH]c3ncnc(N4CCOCC4)c23)c1` [Example 91, 5-(3-fluorophenyl)-4-(morpholin-4-yl)-7H-pyrrolo[2,3-d]pyrimidine], the IC50 (mutant G2019S LRRK2) was 21 nM and the IC50 [1] was 9 nM.

`N#Cc1cccc(-c2c[nH]c3ncnc(N4CCOC(c5nc(C6CC6)no5)C4)c23)c1` (stereo not drawn) [Example 142, 3-{4-[2-(3-cyclopropyl-1,2,4-oxadiazol-5-yl)morpholin-4-yl]-7H-pyrrolo[2,3-d]pyrimidin-5-yl}benzonitrile] gave an IC50 (mutant G2019S LRRK2) of 84 nM and an IC50 [1] of 30 nM.

For `N#Cc1cccc(-c2c[nH]c3ncnc(N4CCC[C@H](O)C4)c23)c1` [Example 14, 3-{4-[(3S)-3-hydroxypiperidin-1-yl]-7H-pyrrolo[2,3-d]pyrimidin-5-yl}benzonitrile], the IC50 (mutant G2019S LRRK2) was 95 nM and the IC50 [1] was 17 nM.

`COc1ccc(C#N)cc1-c1c[nH]c2ncnc(N(C)C)c12` [Example 24, 3-[4-(dimethylamino)-7H-pyrrolo[2,3-d]pyrimidin-5-yl]-4-methoxybenzonitrile] showed an IC50 (mutant G2019S LRRK2) of 30 nM and an IC50 [1] of 24 nM.

Work on `COc1cc(F)cc(-c2c[nH]c3ncnc(N4CCC(F)CC4)c23)c1` [Example 160, 5-(3-fluoro-5-methoxyphenyl)-4-(4-fluoropiperidin-1-yl)-7H-pyrrolo[2,3-d]pyrimidine] yielded an IC50 (mutant G2019S LRRK2) of 96 nM and an IC50 [1] of 84 nM.

For `COc1cccc(F)c1-c1c[nH]c2ncnc(N3CCOCC3)c12` [Example 190, 5-(2-fluoro-6-methoxyphenyl)-4-(morpholin-4-yl)-7H-pyrrolo[2,3-d]pyrimidine], the IC50 (mutant G2019S LRRK2) was 34 nM and the IC50 [1] was 25 nM.

With `C1=C(c2c[nH]c3ncnc(N4CCOCC4)c23)COCC1` [Example 199, 5-(5,6-Dihydro-2H-pyran-3-yl)-4-(morpholin-4-yl)-7H-pyrrolo[2,3-d]pyrimidine] the IC50 (mutant G2019S LRRK2) was 351 nM and the IC50 [1] was 97.8 nM.

Work on `N#Cc1cccc(-c2c[nH]c3ncnc(N4CCCCC4)c23)c1` [Example 12, 3-[4-(piperidin-1-yl)-7H-pyrrolo[2,3-d]pyrimidin-5-yl]benzonitrile] yielded an IC50 (mutant G2019S LRRK2) of 28 nM and an IC50 [1] of 6 nM.

With `CC1CCN(c2ncnc3[nH]cc(-c4cccc(C#N)c4)c23)C1` (single isomer, unassigned) [Example 71] the IC50 (mutant G2019S LRRK2) was 102 nM and the IC50 [1] was 21 nM.

`Cc1[nH]c2ncnc(N3CCOCC3)c2c1-c1cccc(C#N)c1` [Example 2, 3-[6-Methyl-4-(morpholin-4-yl)-7H-pyrrolo[2,3-d]pyrimidin-5-yl]benzonitrile] was tested, and the IC50 (mutant G2019S LRRK2) was 43 nM and the IC50 [1] was 12 nM.

`COc1ccc(F)cc1-c1c[nH]c2ncnc(N3CCC(F)CC3)c12` [Example 163, 5-(5-fluoro-2-methoxyphenyl)-4-(4-fluoropiperidin-1-yl)-7H-pyrrolo[2,3-d]pyrimidine] showed an IC50 (mutant G2019S LRRK2) of 29 nM and an IC50 [1] of 25 nM.

With `COCC1CN(c2ncnc3[nH]cc(-c4cccc(C#N)c4)c23)CCO1` (stereo not drawn) [Example 30, 3-{4-[2-(methoxymethyl)morpholin-4-yl]-7H-pyrrolo[2,3-d]pyrimidin-5-yl}benzonitrile] the IC50 (mutant G2019S LRRK2) was 121 nM and the IC50 [1] was 17 nM.

`COc1cncc(-c2c[nH]c3ncnc(N4CCOCC4)c23)n1` [Example 151, 5-(6-methoxypyrazin-2-yl)-4-(morpholin-4-yl)-7H-pyrrolo[2,3-d]pyrimidine] showed an IC50 (mutant G2019S LRRK2) of 37 nM and an IC50 [1] of 32 nM.

`N#Cc1cccc(-c2c[nH]c3ncnc(N4CCOC(c5cc[nH]n5)C4)c23)c1` (single isomer, unassigned) [Example 76, 3-{4-[2-(1H-pyrazol-3-yl)morpholin-4-yl]-7H-pyrrolo[2,3-d]pyrimidin-5-yl}benzonitrile] showed an IC50 (mutant G2019S LRRK2) of 208 nM and an IC50 [1] of 23 nM.

Work on `Cn1cc(-c2c[nH]c3ncnc(N4CCSCC4)c23)cn1` [Example 119, 5-(1-methyl-1H-pyrazol-4-yl)-4-(thiomorpholin-4-yl)-7H-pyrrolo[2,3-d]pyrimidine] yielded an IC50 (mutant G2019S LRRK2) of 51 nM and an IC50 [1] of 71 nM.
